Counter-ions that a name gives are not always drawn.

By Ki is commonly meant a measure of affinity in units of concentration, obtained from inhibition or displacement. A low value points to a stronger hold on the target.

adenosine A2A receptor, sequence (P29274 whole entry): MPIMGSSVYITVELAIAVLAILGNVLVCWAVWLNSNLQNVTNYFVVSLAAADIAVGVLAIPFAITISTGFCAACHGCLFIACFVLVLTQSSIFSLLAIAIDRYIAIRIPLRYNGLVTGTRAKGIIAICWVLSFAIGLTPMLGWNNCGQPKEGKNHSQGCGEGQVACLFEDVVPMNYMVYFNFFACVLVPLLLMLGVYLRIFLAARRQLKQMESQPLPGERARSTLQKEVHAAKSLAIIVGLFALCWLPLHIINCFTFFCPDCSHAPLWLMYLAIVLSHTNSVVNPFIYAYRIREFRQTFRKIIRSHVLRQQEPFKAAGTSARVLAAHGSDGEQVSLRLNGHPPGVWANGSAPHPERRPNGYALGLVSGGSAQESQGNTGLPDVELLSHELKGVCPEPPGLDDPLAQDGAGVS

The target of this experiment is adenosine A2A receptor (Homo sapiens, UniProt P29274). Briefly: A2A receptor agonist assay by the method of L. J. Murphree et al, Molecular Pharmacology 61, 455-462 (2002). The format is binding. Particulars: Mol. Pharmacol. 61, 455-462 (2002). The source says:
Compounds of formula I and their pharmaceutically acceptable salts are useful as pharmaceuticals. In particular, they activate the adenosine A2A receptor, i.e. they act as A2A receptor agonists.
In turn, `CS(=O)(=O)N[C@H]1C[C@@H](n2cnc3c(N)nc(Cl)nc32)[C@H](O)[C@@H]1O` [Example 1, N-[(1S,2R,3S,4R)-4-(6-Amino-2-chloropurin-9-yl)-2,3-dihydroxy-cyclopentyl]-methane-sulfonamide Trifluoroacetate] showed an inhibition constant (Ki) of 582 nM. In other words, the sub-micromolar range. For `CCC(=O)N[C@H]1C[C@@H](n2cnc3c(N)nc(NCCc4ccccc4)nc32)[C@H](O)[C@@H]1O` [Example 2, N-[(1S,2R,3S,4R)-4-(6-Amino-2-phenethlamino-purin-9-yl)-2,3-dihydroxy-cyclopentyl]-propionamide trifluoroacetate] the value was 18 nM; for `CCC(=O)N[C@H]1C[C@@H](n2cnc3c(NCC(c4ccccc4)c4ccccc4)nc(Cl)nc32)[C@H](O)[C@@H]1O` [Example 4, N-{(1S,2R,3S,4R)-4-[2-chloro-6-(2,2-diphenyl-ethylamino)purin-9-yl]-2,3-dihydroxy-cyclopentyl}-propionamide], 57 nM. The same measure for `CCCCC#Cc1nc(NCC(c2ccccc2)c2ccccc2)c2ncn(C3CC(NC(=O)CC)C(O)C3O)c2n1` [Example 6, N-{(1S,2R,3S,4R)-4-[6-(2,2-Diphenyl-ethylamino-2-hex-1-ynyl-purin-9-yl]-2,3-dihydroxy-cyclopentyl}-propionamide]: 8 nM; for `O=C(N[C@H]1C[C@@H](n2cnc3c(NCC(c4ccccc4)c4ccccc4)nc(Cl)nc32)[C@H](O)[C@@H]1O)C1CC1` [Example 12, Cyclopropanecarboxylic acid {(1S,2R,3S,4R)-4-[2-chloro-6-(2,2-diphenyl-ethylamino)-purin-9-yl]-2,3-dihydroxy-cyclopentyl}-amide]: 3 nM. Consider `CCC(=O)N[C@H]1C[C@@H](n2cnc3c(NC(CC)CC)nc(Cl)nc32)[C@H](O)[C@@H]1O` [Example 14, N-{(1S,2R,3S,4R)-4-[2-chloro-6-(1-ethyl-propylamino)-purin-9-yl]-2,3-dihydroxy-cyclopentyl}-propionamide], for which the inhibition constant (Ki) stood at 690 nM. The same measure for `CCC(=O)N[C@H]1C[C@@H](n2cnc3c(NC(CC)CC)nc(NC4CCC(N)CC4)nc32)[C@H](O)[C@@H]1O` (stereo partly drawn) [Example 20, N-{(1S,2R,3 S,4R)-4-[2-(4-Amino-cyclohexylamino)-6-(1-ethyl-propylamino)-purin-9-yl]-2,3-dihydroxy-cyclopentyl}-propionamide]: 8 nM; for `CCC(=O)N[C@H]1C[C@@H](n2cnc3c(NCC(c4ccccc4)c4ccccc4)nc(N4CC[C@@H](NC(=O)N[C@@H]5CCNC5)C4)nc32)[C@H](O)[C@@H]1O` [Example 39, N-((1S,2R,3S,4R)-4-4-{6-(2,2-Diphenyl-ethylamino)-2-[(R)-3-((R)-3-pyrrolidin-3-yl)ureido)-pyrrolidin-1-yl]-purin-9-yl}-2,3-dihydroxy-cyclopentyl)-propionamide Trifluoroacetate]: 3 nM; for `CC(=O)N[C@H]1C[C@@H](n2cnc3c(NCC(c4ccccc4)c4ccccc4)nc(C(=O)NCCNC(=O)NC4CCN(c5ccccn5)CC4)nc32)[C@H](O)[C@@H]1O` [Example 42, 9-((1R,2S,3R,4S)-4-acetylamino-2,3-dihydroxy-cyclopentyl)-6-(2,2-diphenyl-ethylamino)-9H-purine-2-carboxylic acid {2-[3-(3,4,5,6-tetra-hydro-2H-[1,2′]bipyridinyl-4-yl)-ureido]-ethyl}-amide trifluoroacetate]: 2 nM. The same measure for `CCC(=O)N[C@H]1C[C@@H](n2cnc3c(NCc4cccc5ccccc45)nc(N4CC[C@@H](NC(=O)N[C@@H]5CCNC5)C4)nc32)[C@H](O)[C@@H]1O` [Example 55, N-((1S,2R,3S,4R)-2,3-Dihydroxy-4-{6-[(naphthalen-1-ylmethyl)-amino]-2-[(R)-3-((R)-3-pyrrolidin-3-ylureido)-pyrrolidin-1-yl]-purin-9-yl}-cyclopentyl)-propionamide Trifluoroacetate]: 4 nM; for `CCC(=O)N[C@H]1C[C@@H](n2cnc3c(NCCC(c4ccccc4)c4ccccc4)nc(NCCc4cn(CC)cn4)nc32)[C@H](O)[C@@H]1O` [Example 61, N-{(1S,2R,3S,4R)-4-(6-(3,3-diphenyl-propyl-amino)-2-[2-(1-ethyl-1H-imidazol-4-yl)-ethylamino]-purin-9-yl}-2,3-dihydroxy-cyclopentyl)-propionamide trifluoroacetate]: 9 nM.

The values are drawn from patent publication US20090105476A1, “Organic Compounds” (Novartis AG, priority 2006, published 2009).
